Experimental data published in patent US4430502A, “Pyridinyl substituted benzimidazoles and quinoxalines” (The Upjohn Company, priority 1982, dated 1984).

Target: T1, TXA2 synthetase (Homo sapiens, UniProt P24557)
T1 construct: human platelet microsomes (HPM); from tissue; host or cells: human platelet microsomes
T1 sequence (P24557 1-533): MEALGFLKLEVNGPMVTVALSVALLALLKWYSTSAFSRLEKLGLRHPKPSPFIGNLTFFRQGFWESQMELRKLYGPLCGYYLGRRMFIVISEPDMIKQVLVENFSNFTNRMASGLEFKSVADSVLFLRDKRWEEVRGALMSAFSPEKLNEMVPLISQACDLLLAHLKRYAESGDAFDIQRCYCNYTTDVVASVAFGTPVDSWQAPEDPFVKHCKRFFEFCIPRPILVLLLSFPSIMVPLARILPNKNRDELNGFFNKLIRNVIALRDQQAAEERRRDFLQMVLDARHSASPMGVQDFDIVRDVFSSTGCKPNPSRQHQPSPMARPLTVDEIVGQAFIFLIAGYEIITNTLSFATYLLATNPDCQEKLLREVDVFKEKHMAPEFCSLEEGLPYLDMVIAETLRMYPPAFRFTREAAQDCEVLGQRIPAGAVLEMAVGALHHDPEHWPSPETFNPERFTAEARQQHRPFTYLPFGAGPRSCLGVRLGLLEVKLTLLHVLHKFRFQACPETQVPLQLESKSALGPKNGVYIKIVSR
Experiment: TXA2 inhibition test: TXA2 generated from PGH2 with human platelet microsomes, response of superfused rabbit aortic strips
Type: biochemical
Description: The compounds of the present invention were tested for TXA2 inhibition as follows:
Rabbit aortic strips were superfused in series with Krebs solution. Thromboxane A2 (TXA2) was generated by mixing prostaglandin H2 (PGH2) with human platelet microsomes (HPM).
Potential inhibitors were tested by comparing the response of the rabbit aorta to the amount of TXA2 produced by mixing PGH2 and HPM without the test compound in the reaction medium and then the amount of TXA2 produced when the test compound was added to the HPM 5 minutes before the HPM was mixed with PGH2. […] For a discussion of TXA2 synthetase inhibition testing see, e.g., R. Gorman, supra.

c1cncc(Cc2ccc3nc[nH]c3c2)c1 [Example 3, 5-(3-Pyridinylmethyl)benzimidazole]
effectiveness in inhibiting TXA2 formation (compared with the other compounds tested in this test system): most effective
IC50 (test compound added to human platelet microsomes 5 minutes before mixing with PGH2, rabbit aorta response, read-out: approximate ED50 for inhibiting TXA2 formation (converted)): ~478 nM
